# Results from patent publication US7749486B2 (Hoffmann-La Roche Inc., priority 2006, dated 2010).
# Tests used:
# [1] = system: LOX-GFP-LM cells; assay: LOX-GFP-LM experimental metastasis model (lung homogenate fluorescence and survival); assay type: in vivo, SCID beige mice; conditions: for TGI % At day 26 (tumor growth inhibition relative to Vehicle control group) / RFU (mean ± SD) of lung homogenate / ILS % (increased lifetime-span) / 50% survival days / TGI % At day 25 (tumor growth inhibition relative to Vehicle control group): bid
# Method: Female SCID beige mice were injected iv via the tail vein with 2 million cells in a volume of 200 μl serum free RPMI1640, randomized into groups, and treated as shown in Tables 6 and 7 with a variety of doses and/or dose schedules. […] The remaining mice from each group were monitored for survival benefit until they were moribund.
# Two parameters were assessed for quantitative evaluation of anti-metastatic efficacy: 1) Fluorescence intensity of lung homogenates and 2) Survival.
# 5 mice per treatment group were removed from the study at Day 25 or 26 for evaluation of lung metastatic tumor burden. Mice were euthanized, and lungs were removed, placed in 3 ml saline, and homogenized. 0.2 ml of lung homogenate was transferred to a 96 well plate, and fluorescence was read using Acumen Explorer. […] Fluorescence was reported in relative fluorescence units (RFU). […] Statistical analysis was determined by Student-test or Mann-Whitney U test, and statistic differences between groups were considered to be significant when the probability value (p) was ≦0.05.
# Survival represented overall metastatic status either due to lung metastasis or metastasis to other organs. Moribundity due to labored breathing or hind limb paralysis was monitored and recorded as the surrogate endpoint for survival. For survival assessment, results were plotted as the percentage survival against days after tumor implant. The Increased lifetime-span (% ILS) was calculated as: ILS %=100×[(median survival day of treated group−median survival day of control group)/median survival day of control group]. Median survival or (50% survival time) was determined utilizing Kaplan Meier survival analysis. […] Differences in survival were analyzed by the log-rank test. Statistic differences between groups were considered to be significant when the probability value (p) was ≦0.05.
# [2] = system: LOX-GFP cells; assay: LOX-GFP peritoneal (ascites) model; assay type: in vivo, Nu/Nu mice
# Method: Human melanoma LOX-GFP cells, prepared in accordance with the procedure of Example 3, were maintained in RPMI 1640 medium plus 10% FBS, and 1% Geneticin (G418).
# Mice were euthanized, and then a small incision was made along the midline of the abdomen through the skin and peritoneum. A glass Pasteur pipet was utilized to aspirate and remove ascites fluid from the peritoneum, and the ascites was transferred to a 15 ml tube. 3 ml saline was used to rinse the peritoneal cavity, and all of the saline was recovered and transferred into the 15 ml tube containing the ascites fluid. The ascites cell suspension was filtered through a 40 μm nylon filter to obtain a single cell suspension and centrifuged at 1500 rpm for 10 min. The supernatant was removed, and the cell pellet was resuspended in 2 ml of fresh saline. 0.1 ml from each sample was transferred into a 96 well plate to evaluate cell number (reported as relative fluorescence units) utilizing an Acumen Explorer.
# [3] = 25, 50, 100 mg/kg po bid, 6 doses (Days 4, 5 & 6), ascites harvest Day 7
compound,measurement,setting,value
"COc1ccc(C2=N[C@@H](c3ccc(Cl)cc3)[C@@H](c3ccc(Cl)cc3)N2C(=O)N2CCNC(=O)C2)c(OC(C)C)c1 (stereo in doubt) [Compound D, 4-[(4S,5R)-4,5-Bis-(4-chloro-phenyl)-2-(2-isopropoxy-4-methoxy-phenyl)-4,5-dihydro-imidazole-1-carbonyl]-piperazin-2-one]",TGI % At day 26 (tumor growth inhibition relative to Vehicle control group),"[1]; 200 mg/kg po, Day 3-21",96.2%
same,RFU (mean ± SD) of lung homogenate,"[1]; 200 mg/kg po, Day 3-21, lungs at day 26",2359191 ± 526586 RFU
same,ILS % (increased lifetime-span),"[1]; 200 mg/kg po, Day 3-d21",29%
same,50% survival days,"[1]; 200 mg/kg po, Day 3-d21, Vehicle 28 days",36 days
same,TGI % At day 26 (tumor growth inhibition relative to Vehicle control group),"[1]; 200 mg/kg po, Day −1-7",66.0%
same,RFU (mean ± SD) of lung homogenate,"[1]; 200 mg/kg po, Day −1-7, lungs at day 26",21092887 ± 10460489 RFU
same,TGI % At day 26 (tumor growth inhibition relative to Vehicle control group),"[1]; 200 mg/kg po, Day −1-21",78.7%
same,RFU (mean ± SD) of lung homogenate,"[1]; 200 mg/kg po, Day −1-21, lungs at day 26",13230372 ± 11960417 RFU
same,ILS % (increased lifetime-span),"[1]; 200 mg/kg po, Day −1-d7",0%
same,50% survival days,"[1]; 200 mg/kg po, Day −1-d7, Vehicle 28 days",28 days
same,ILS % (increased lifetime-span),"[1]; 200 mg/kg po, Day −1-d21",10.7%
same,50% survival days,"[1]; 200 mg/kg po, Day −1-d21, Vehicle 28 days",31 days
same,anti-metastatic activity as assessed by fluorescence intensity of lung homogenates,[1]; late intervention (Dosed Day 3 through 23) as compared to Vehicle,superior anti-metastatic activity
same,LOX-GFP ascites growth,[2]; [3],inhibited LOX-GFP ascites growth at several doses
same,dose dependence of LOX-GFP ascites growth inhibition,[2]; [3],not dose-dependent
"COc1ccc(F)c(F)c1C(=O)c1cnc(NC2CCN(S(C)(=O)=O)CC2)nc1N [Compound A, [4-Amino-2-(1-methanesulfonyl-piperidin-4-ylamino)-pyrimidin-5-yl]-(2,3-difluoro-6-methoxy-phenyl)-methanone]",LOX-GFP ascites cell growth,"[2]; Compound A 40 mg/kg po, 2 doses (Days 5 & 6), ascites harvest Day 7",reduced cell growth
same,LOX-GFP ascites cell growth,"[2]; Compound A 40 mg/kg po, 3 doses (Days 4, 5 & 6), ascites harvest Day 7",reduced cell growth maximally
same,LOX-GFP ascites cell growth,"[2]; Compound A 40 mg/kg po, single dose (Day 6), ascites harvest Day 7",did not inhibit cell growth
"COc1ccc(C2=NC(c3ccc(Cl)cc3)C(c3ccc(Cl)cc3)N2C(=O)N2CCNC(=O)C2)c(OC(C)C)c1 (stereo not drawn) [Compound B, 4-[4,5-Bis-(4-chloro-phenyl)-2-(2-isopropoxy-4-methoxy-phenyl)-4,5-dihydro-imidazole-1-carbonyl]-piperazin-2-one]",LOX-GFP ascites growth,"[2]; 40 mg/kg sc, 6 doses, ascites harvest Day 8",demonstrated inhibitory effects on LOX-GFP ascites growth
"CCOc1ccnc2ccc(/C=C3\SC(N[C@@H](CO)c4ccccc4)=NC3=O)cc12 [Compound C, 5-(4-Ethoxy-quinolin-6-ylmeth-(Z)-ylidine)-2-(2-hydroxy-1-(R)-phenyl-ethylamino)-thiazol-4-one]",LOX-GFP ascites growth,"[2]; 200 mg/kg po bid, 12 doses, ascites harvest Day 8",demonstrated inhibitory effects on LOX-GFP ascites growth
Cc1[nH]nc2c1N=C(c1ccccc1Cl)c1cc(N)ccc1N2 [Compound E],TGI % At day 25 (tumor growth inhibition relative to Vehicle control group),"[1]; 5 mg/kg po, Day 3-23",82.3%
same,RFU (mean ± SD) of lung homogenate,"[1]; 5 mg/kg po, Day 3-23, lungs at day 25",8618508 ± 3198528 RFU
same,ILS % (increased lifetime-span),"[1]; 5 mg/kg po, Day 3-d23",16.7%
same,50% survival days,"[1]; 5 mg/kg po, Day 3-d23, Vehicle 24 days",28 days
same,TGI % At day 25 (tumor growth inhibition relative to Vehicle control group),"[1]; 5 mg/kg po, Day −1-7",−5.9%
same,RFU (mean ± SD) of lung homogenate,"[1]; 5 mg/kg po, Day −1-7, lungs at day 25",51670506 ± 29321586 RFU
same,TGI % At day 25 (tumor growth inhibition relative to Vehicle control group),"[1]; 5 mg/kg po, Day −1-23",73.9%
same,RFU (mean ± SD) of lung homogenate,"[1]; 5 mg/kg po, Day −1-23, lungs at day 25",12738540 ± 5426672 RFU
same,ILS % (increased lifetime-span),"[1]; 5 mg/kg po, Day −1-d7",4.2%
same,50% survival days,"[1]; 5 mg/kg po, Day −1-d7, Vehicle 24 days",25 days
same,ILS % (increased lifetime-span),"[1]; 5 mg/kg po, Day −1-d23",16.7%
same,50% survival days,"[1]; 5 mg/kg po, Day −1-d23, Vehicle 24 days",28 days
same,anti-metastatic activity as assessed by fluorescence intensity of lung homogenates,[1]; late intervention (Dosed Day 3 through 23) vs full length intervention (Day −1 through 23),equivalent anti-metastatic activity
"CC(=O)O[C@H]1C(=O)[C@@]2(C)[C@H]([C@H](OC(=O)c3ccccc3)[C@]3(O)C[C@H](OC(=O)[C@H](O)[C@@H](NC(=O)c4ccccc4)c4ccccc4)C(C)=C1C3(C)C)[C@]1(OC(C)=O)CO[C@@H]1C[C@@H]2O [Taxol, reference compound]",LOX-GFP ascites cell growth,"[2]; Taxol 10 mg/kg iv, 2 doses (Days 5 & 6), ascites harvest Day 7",reduced cell growth
same,LOX-GFP ascites cell growth,"[2]; Taxol 10 mg/kg iv, 3 doses (Days 4, 5 & 6), ascites harvest Day 7",reduced cell growth maximally
same,LOX-GFP ascites cell growth,"[2]; Taxol 10 mg/kg iv, single dose (Day 6), ascites harvest Day 7",did not inhibit cell growth
